Data as given in US9040524B2, “Antifungal 5,6-dihydro-4H-pyrrolo[1,2-a][1,4]-benzodiazepines and 6H-pyrrolo[1,2-a][1,4]benzodiazepines substituted with bicycle benzene derivatives” (JANSSEN PHARMACEUTICA NV, priority 2010, dated 2015).

What was measured:
Assay type in all cases: cell-based
Microsporum canis = assay: Antifungal activity in vitro, resazurin growth inhibition screen: Microsporum canis; settings: Microsporum canis B68128
Method: (§1) The standard susceptibility screen was performed in 96-well plates (U-bottom, Greiner Bio-One). Serial dilutions (2-fold or 4-fold) of 20 mM compound stock solutions were made in 100% DMSO, followed by an intermediate dilution step in water. These serial dilutions (10 μl) were then spotted onto test-plates that could be stored in the dark at 4° C. for a maximum period of 2 weeks. An adequate broad dose-range was included with 64 μM as the highest in-test concentration. […] The different fungal species/isolates (Table 3a) were cryopreserved and 1/1000 diluted in medium just prior to use. A standard inoculum of 200 μl containing 10^3 colony-forming unit (cfu) was then added to each well. A positive control (100% growth=fungal culture without antifungal) and a negative control (0% growth=RPMI-MOPS medium) were included on each plate.

[1] = test system: Trichophyton mentagrophytes; assay: Antifungal activity in vitro, resazurin growth inhibition screen: Trichophyton mentagrophytes; settings: Trichophyton mentagrophytes B70554
Method: as §1

Trichophyton rubrum = assay: Antifungal activity in vitro, resazurin growth inhibition screen: Trichophyton rubrum; settings: Trichophyton rubrum B68183
Method: as §1

Sporothrix schenkii = assay: Antifungal activity in vitro, resazurin growth inhibition screen: Sporothrix schenkii; settings: Sporothrix schenkii B62482
Method: as §1

Aspergillus fumigatus = assay: Antifungal activity in vitro, resazurin growth inhibition screen: Aspergillus fumigatus; settings: Aspergillus fumigatus B42928
Method: as §1

Candida parapsilosis = assay: Antifungal activity in vitro, resazurin growth inhibition screen: Candida parapsilosis; settings: Candida parapsilosis B66126
Method: as §1

Cryptococcus neoformans = assay: Antifungal activity in vitro, resazurin growth inhibition screen: Cryptococcus neoformans; settings: Cryptococcus neoformans B66663
Method: as §1

| Structure (SMILES) | Inf. B pIC50 (Microsporum canis) | Inf. G pIC50 [1] | Inf. C pIC50 (Trichophyton rubrum) | Inf. A pIC50 (Sporothrix schenkii) | Inf. E pIC50 (Aspergillus fumigatus) | Inf. D pIC50 (Candida parapsilosis) | Inf. F pIC50 (Cryptococcus neoformans) | IC50 (Microsporum canis; read-out: Inf. B pIC50 (converted)) [µM] | IC50 ([1]; read-out: Inf. G pIC50 (converted)) [µM] | IC50 (Trichophyton rubrum; read-out: Inf. C pIC50 (converted)) [µM] | IC50 (Sporothrix schenkii; read-out: Inf. A pIC50 (converted)) [µM] | IC50 (Aspergillus fumigatus; read-out: Inf. E pIC50 (converted)) [µM] | IC50 (Candida parapsilosis; Lodderomyces parapsilosis, read-out: Inf. D pIC50 (converted)) [µM] | IC50 (Cryptococcus neoformans; read-out: Inf. F pIC50 (converted)) [µM] |
| --- | --- | --- | --- | --- | --- | --- | --- | --- | --- | --- | --- | --- | --- | --- |
| Cl.Clc1ccc(Cl)c2c1CNC(c1ccc3c(c1)CCO3)c1cccn1-2 (stereo not drawn) [Compound 32, 7,10-dichloro-4-(2,3-dihydro-5-benzofuranyl)-5,6-dihydro-4H-pyrrolo[1,2-a][1,4]-benzodiazepine .HCl] | 5.52 | 4.92 | 5.22 | <4.19 | <4.19 | <4.19 | 4.64 | – | – | – | – | – | – | – |
| Cl.Clc1ccc(Cl)c2c1CNC(c1ccc3c(c1)OCC3)c1cccn1-2 (stereo not drawn) [Compound 33, 7,10-dichloro-4-(2,3-dihydro-6-benzofuranyl)-5,6-dihydro-4H-pyrrolo[1,2-a][1,4]-benzodiazepine .HCl] | 5.52 | <4.19 | 5.15 | <4.19 | <4.19 | <4.19 | <4.19 | – | – | – | – | – | – | – |
| Cl.Clc1cc(Cl)c2c(c1)CNC(c1ccc3c(c1)CCO3)c1cccn1-2 (stereo not drawn) [Compound 34, 8,10-dichloro-4-(2,3-dihydro-5-benzofuranyl)-5,6-dihydro-4H-pyrrolo[1,2-a][1,4]-benzodiazepine .HCl] | 5.70 | 4.96 | 5.70 | <4.19 | <4.19 | <4.19 | 5.52 | – | – | – | – | – | – | – |
| Fc1cccc2c1CN=C(c1ccc3c(c1)CCCO3)c1cccn1-2 [Compound 40, 4-(3,4-dihydro-2H-1-benzopyran-6-yl)-7-fluoro-6H-pyrrolo[1,2-a][1,4]benzo-diazepine] | 4.49 | <4.19 | <4.19 | <4.19 | <4.19 | 5.56 | 5.87 | – | – | – | – | – | – | – |
| Clc1ccc2c(c1)-n1cccc1C(c1ccc3c(c1)CCOC3)=NC2 [Compound 41, 9-chloro-4-(3,4-dihydro-1H-2-benzopyran-6-yl)-6H-pyrrolo[1,2-a][1,4]benzo-diazepine] | 4.48 | 4.49 | <4.19 | <4.19 | <4.19 | 5.60 | 4.52 | – | – | – | – | – | – | – |
| Clc1ccc2c(c1)-n1cccc1C(c1ccc3c(c1)CCCO3)=NC2 [Compound 42, 9-chloro-4-(3,4-dihydro-2H-1-benzopyran-6-yl)-6H-pyrrolo[1,2-a][1,4]benzo-diazepine] | 4.49 | <4.19 | <4.19 | 5.10 | <4.19 | 5.63 | 6.82 | – | – | – | – | – | – | – |
| Clc1ccc2c(c1Cl)CN=C(c1ccc3c(c1)CCO3)c1cccn1-2 [Compound 44, 7,8-dichloro-4-(2,3-dihydro-5-benzofuranyl)-6H-pyrrolo[1,2-a][1,4]benzodiazepine] | – | – | – | – | – | – | – | 5.01 | 7.94 | 5.01 | 5.01 | > 64.6 | 12 | 7.08 |
| Fc1cc(F)c2c(c1)-n1cccc1C(c1ccc3c(c1)CCCO3)=NC2 [Compound 46, 4-(3,4-dihydro-2H-1-benzopyran-6-yl)-7,9-difluoro-6H-pyrrolo[1,2-a][1,4]benzo-diazepine] | 4.48 | <4.19 | 4.44 | 4.49 | 4.49 | 5.79 | 5.49 | – | – | – | – | – | – | – |
| Clc1ccc(Cl)c2c1CN=C(c1ccc3c(c1)OCC3)c1cccn1-2 [Compound 47, 7,10-dichloro-4-(2,3-dihydro-6-benzofuranyl)-6H-pyrrolo[1,2-a][1,4]benzo-diazepine] | 5.40 | <4.19 | 5.92 | <4.19 | <4.19 | <4.19 | <4.19 | – | – | – | – | – | – | – |
